Reference: ChEMBL document CHEMBL5465560, “Selectivity Literature for EUbOPEN Chemogenomic Library” (2024)

Columns and labels:
[1] = molecular target: Serine/threonine-protein kinase VRK2 (Homo sapiens) (UniProt Q86Y07); experiment: Selectivity interaction (KinomeScan (DiscoverX)) EUB0000595a VRK2; settings: at 10 µM
[2] = molecular target: T1, Ephrin type-B receptor 1 (Homo sapiens) (UniProt P54762); experiment: Selectivity interaction (KinomeScan (DiscoverX)) EUB0000595a EPHB1; settings: at 10 µM
T1 sequence (whole entry): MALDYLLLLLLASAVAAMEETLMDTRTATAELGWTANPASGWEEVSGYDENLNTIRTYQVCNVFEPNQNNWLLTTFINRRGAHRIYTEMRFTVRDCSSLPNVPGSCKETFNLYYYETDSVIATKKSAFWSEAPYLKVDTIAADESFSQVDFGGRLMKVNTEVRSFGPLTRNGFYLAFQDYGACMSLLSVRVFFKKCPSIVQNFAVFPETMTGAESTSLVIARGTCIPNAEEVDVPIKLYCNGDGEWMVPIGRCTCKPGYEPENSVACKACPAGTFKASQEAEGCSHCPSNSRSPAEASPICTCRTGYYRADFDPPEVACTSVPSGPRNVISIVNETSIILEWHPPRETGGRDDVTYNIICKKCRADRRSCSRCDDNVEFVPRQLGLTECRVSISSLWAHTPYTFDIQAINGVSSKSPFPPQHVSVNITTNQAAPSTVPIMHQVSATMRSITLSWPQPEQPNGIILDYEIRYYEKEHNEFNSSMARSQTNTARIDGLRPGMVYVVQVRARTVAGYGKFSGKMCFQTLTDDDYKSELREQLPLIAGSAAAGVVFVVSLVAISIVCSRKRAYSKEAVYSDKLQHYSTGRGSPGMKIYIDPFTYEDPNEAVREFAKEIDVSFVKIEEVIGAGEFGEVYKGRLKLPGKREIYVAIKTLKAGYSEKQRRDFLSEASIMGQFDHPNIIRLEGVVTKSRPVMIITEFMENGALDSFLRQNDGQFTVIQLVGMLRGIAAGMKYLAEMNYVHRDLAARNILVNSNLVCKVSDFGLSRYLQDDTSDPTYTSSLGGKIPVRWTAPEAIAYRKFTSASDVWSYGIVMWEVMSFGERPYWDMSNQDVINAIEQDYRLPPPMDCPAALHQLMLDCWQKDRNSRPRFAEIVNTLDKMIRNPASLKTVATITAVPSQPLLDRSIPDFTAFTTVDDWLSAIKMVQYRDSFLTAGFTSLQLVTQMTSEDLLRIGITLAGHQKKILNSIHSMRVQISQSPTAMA

[3] = molecular target: T2, Mitogen-activated protein kinase kinase kinase 12 (Homo sapiens) (UniProt Q12852); experiment: Selectivity interaction (KinomeScan (DiscoverX)) EUB0000666a MAP3K12; settings: at 10 µM
T2 sequence (whole entry): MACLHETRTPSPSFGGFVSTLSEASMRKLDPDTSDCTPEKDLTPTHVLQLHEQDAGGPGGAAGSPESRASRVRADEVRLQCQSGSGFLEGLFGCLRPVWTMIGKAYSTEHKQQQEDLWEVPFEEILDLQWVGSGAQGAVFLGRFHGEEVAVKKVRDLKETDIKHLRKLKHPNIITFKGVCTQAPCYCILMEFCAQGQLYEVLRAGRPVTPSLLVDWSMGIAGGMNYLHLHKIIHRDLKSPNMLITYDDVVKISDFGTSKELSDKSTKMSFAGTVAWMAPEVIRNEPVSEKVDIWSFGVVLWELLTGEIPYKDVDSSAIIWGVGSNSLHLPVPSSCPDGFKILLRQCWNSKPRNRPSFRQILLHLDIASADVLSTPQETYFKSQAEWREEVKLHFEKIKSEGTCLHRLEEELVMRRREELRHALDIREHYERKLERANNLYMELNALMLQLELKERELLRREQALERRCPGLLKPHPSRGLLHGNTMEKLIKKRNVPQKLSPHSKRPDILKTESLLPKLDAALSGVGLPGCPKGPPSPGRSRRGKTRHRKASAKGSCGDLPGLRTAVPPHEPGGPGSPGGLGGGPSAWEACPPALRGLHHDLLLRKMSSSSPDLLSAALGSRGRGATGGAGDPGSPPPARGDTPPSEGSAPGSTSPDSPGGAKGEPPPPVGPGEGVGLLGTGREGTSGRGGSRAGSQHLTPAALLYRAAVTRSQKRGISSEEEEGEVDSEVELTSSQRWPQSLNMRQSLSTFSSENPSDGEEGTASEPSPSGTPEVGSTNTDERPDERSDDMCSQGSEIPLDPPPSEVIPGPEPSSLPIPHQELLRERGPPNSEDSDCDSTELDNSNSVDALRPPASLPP

[4] = molecular target: T3, Dual specificity tyrosine-phosphorylation-regulated kinase 1B (Homo sapiens, UniProt Q9Y463); experiment: Selectivity interaction (KinomeScan (DiscoverX)) EUB0001049a DYRK1B; settings: at 1 µM
[5] = molecular target: T4, Phosphatidylinositol 5-phosphate 4-kinase type-2 gamma (Homo sapiens) (UniProt Q8TBX8); experiment: Selectivity interaction (KinomeScan (DiscoverX)) EUB0001550a PIP4K2C; settings: at 1 µM
T4 sequence (whole entry): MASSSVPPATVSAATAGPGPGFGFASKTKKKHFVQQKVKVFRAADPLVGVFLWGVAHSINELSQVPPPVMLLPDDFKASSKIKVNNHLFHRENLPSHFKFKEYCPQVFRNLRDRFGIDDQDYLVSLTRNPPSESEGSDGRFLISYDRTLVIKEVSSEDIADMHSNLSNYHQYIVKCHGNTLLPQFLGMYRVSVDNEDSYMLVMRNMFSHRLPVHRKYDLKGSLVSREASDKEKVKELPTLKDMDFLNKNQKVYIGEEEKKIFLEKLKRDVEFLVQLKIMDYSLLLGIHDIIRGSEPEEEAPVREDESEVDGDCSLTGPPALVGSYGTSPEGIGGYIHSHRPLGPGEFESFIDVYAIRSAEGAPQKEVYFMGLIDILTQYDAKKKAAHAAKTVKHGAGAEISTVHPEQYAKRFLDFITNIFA

Aurora kinase B = Aurora kinase B (Homo sapiens, UniProt Q96GD4); experiment: Selectivity interaction (SelectScreen profiling (Invitrogen)) EUB0000607a AURKB; settings: at 2 µM
[6] = molecular target: Serine/threonine-protein kinase B-raf (Homo sapiens) (UniProt P15056); experiment: Selectivity interaction (Kinase panel (Invitrogen)) EUB0000639a BRAF; settings: at 200 nM
[7] = molecular target: Ephrin type-A receptor 2 (Homo sapiens) (UniProt P29317); settings: at 10 µM
[8] = molecular target: T3, Dual specificity tyrosine-phosphorylation-regulated kinase 1B; experiment: Selectivity interaction (Ambit KINOMEscan and KiNATiv profiling in Jurkat cells) EUB0000090b DYRK1B; type: cell-based; settings: at 1 µM

T3 sequence (Q9Y463 whole entry, looked up): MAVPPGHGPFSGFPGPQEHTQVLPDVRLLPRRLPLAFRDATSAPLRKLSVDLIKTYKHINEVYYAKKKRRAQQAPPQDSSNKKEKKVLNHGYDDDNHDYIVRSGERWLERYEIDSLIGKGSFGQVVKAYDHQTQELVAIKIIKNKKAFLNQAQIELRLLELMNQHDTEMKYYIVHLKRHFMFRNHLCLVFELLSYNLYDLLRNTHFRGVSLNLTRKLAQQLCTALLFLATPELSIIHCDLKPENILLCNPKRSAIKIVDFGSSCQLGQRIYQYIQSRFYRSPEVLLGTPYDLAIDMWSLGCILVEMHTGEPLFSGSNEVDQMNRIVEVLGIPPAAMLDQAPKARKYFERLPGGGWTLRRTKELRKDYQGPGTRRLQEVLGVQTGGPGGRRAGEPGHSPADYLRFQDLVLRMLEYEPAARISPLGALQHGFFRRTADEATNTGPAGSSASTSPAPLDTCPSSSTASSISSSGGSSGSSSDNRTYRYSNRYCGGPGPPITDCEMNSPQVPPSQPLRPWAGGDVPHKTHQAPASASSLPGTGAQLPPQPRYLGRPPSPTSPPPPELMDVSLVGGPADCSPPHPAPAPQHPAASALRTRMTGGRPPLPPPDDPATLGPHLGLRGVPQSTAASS
Aurora kinase B, sequence (Q96GD4 whole entry): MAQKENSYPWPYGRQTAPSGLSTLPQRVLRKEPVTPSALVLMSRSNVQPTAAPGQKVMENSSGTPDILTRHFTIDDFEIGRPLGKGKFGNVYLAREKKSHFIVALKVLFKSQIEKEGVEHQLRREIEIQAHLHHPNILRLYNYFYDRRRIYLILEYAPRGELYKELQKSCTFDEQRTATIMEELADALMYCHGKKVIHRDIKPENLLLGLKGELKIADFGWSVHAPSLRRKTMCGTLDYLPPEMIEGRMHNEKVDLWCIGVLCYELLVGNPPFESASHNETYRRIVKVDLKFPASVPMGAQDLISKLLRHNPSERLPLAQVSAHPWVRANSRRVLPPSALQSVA
Serine/threonine-protein kinase VRK2 (Homo sapiens), sequence (Q86Y07 whole entry): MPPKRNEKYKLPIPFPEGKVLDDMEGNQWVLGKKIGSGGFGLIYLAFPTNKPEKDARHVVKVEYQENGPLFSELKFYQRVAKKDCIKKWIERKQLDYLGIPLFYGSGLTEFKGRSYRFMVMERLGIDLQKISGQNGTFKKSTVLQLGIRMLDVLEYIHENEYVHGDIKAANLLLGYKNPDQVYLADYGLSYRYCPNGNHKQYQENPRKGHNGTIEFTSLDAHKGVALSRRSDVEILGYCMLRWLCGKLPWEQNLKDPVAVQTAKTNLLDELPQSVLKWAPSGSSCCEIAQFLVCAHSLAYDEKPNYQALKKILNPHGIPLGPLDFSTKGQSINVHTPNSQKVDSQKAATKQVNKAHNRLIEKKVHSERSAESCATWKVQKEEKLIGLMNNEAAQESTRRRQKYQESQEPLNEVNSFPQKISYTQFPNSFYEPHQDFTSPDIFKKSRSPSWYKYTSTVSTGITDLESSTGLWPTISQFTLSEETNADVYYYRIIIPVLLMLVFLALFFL
Serine/threonine-protein kinase B-raf (Homo sapiens), sequence (P15056 whole entry): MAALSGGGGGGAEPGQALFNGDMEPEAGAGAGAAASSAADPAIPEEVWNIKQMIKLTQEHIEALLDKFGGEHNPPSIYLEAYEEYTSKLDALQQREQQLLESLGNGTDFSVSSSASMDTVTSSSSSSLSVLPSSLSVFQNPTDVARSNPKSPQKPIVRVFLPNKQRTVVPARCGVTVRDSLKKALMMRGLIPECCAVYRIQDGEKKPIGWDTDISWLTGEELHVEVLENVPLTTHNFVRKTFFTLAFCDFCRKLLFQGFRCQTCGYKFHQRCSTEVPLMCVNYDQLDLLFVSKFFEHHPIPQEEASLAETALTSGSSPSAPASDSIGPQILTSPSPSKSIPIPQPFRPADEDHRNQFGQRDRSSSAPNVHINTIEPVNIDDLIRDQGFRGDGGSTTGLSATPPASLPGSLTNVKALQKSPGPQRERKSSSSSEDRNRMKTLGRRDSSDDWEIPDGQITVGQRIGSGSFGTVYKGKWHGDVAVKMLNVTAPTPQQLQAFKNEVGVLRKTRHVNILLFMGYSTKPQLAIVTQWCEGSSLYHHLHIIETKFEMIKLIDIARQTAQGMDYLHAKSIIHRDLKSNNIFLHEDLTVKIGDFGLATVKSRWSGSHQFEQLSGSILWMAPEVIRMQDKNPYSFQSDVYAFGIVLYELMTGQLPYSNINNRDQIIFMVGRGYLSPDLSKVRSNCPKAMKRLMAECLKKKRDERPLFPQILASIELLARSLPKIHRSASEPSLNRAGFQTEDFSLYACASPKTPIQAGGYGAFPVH
Ephrin type-A receptor 2 (Homo sapiens), sequence (P29317 whole entry): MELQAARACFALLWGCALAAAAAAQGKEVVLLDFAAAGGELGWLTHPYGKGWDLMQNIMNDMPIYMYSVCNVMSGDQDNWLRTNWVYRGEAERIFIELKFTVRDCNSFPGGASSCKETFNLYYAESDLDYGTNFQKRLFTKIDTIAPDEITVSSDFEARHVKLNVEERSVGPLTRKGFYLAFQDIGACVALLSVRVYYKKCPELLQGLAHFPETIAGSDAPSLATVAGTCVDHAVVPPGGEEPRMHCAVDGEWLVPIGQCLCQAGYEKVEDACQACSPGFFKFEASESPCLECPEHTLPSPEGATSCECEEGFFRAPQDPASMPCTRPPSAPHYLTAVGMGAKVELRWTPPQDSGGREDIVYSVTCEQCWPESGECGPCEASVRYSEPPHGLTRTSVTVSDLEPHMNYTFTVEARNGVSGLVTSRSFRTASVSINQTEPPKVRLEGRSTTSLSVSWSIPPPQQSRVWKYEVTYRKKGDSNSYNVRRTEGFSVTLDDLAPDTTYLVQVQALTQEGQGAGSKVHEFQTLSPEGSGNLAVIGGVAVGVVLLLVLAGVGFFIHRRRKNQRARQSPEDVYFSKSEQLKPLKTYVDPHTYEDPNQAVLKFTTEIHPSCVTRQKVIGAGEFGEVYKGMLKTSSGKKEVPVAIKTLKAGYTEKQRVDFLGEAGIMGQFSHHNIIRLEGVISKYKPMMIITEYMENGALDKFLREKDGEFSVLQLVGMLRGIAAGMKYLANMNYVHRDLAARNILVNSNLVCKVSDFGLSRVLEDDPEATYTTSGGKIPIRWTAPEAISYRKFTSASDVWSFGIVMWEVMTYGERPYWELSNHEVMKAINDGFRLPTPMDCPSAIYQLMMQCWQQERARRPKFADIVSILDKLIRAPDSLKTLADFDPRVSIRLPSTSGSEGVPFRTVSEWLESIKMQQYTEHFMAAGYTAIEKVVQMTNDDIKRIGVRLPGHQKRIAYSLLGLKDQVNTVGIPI

COCC(=O)NC/C=C/c1ccc2ncnc(Nc3ccc(Oc4ccc(C)nc4)c(C)c3)c2c1 [CP-724714]
% of control [1]: 100%
% of control [2]: 100%

O=C(NOC[C@H](O)CO)c1ccc(F)c(F)c1Nc1ccc(I)cc1F
% of control [3]: 78%

COc1cc(Nc2nc(C)cc(-c3cnn4nc(OC)ccc34)n2)cc(C(F)(F)F)c1
% of control [4]: 100%

CN(C)CC#Cc1ccc2[nH]c3c(c2c1)-c1nc(N)ncc1CCC3
% of control [5]: 53%

CNC(=O)Nc1ccc(-c2nc(N3CC4CCC(C3)O4)c3cnn(C4CCC5(CC4)OCCO5)c3n2)cc1
% of inhibition (Aurora kinase B): 3%

CC[C@@H]1[C@H](F)C(=O)N[C@@H]1COc1nccc2cc(C(N)=O)c(OC)cc12 [ZIMLOVISERTIB]
% of inhibition [6]: 8.97%

CCN(CC)CCCCNc1ncc2cc(-c3cc(OC)cc(OC)c3)c(NC(=O)NC(C)(C)C)nc2n1
% of control [7]: 100%

CN(C)C/C=C/C(=O)Nc1ccc(C(=O)N2CCCC(Nc3ncc(Cl)c(-c4c[nH]c5ccccc45)n3)C2)cc1 (centres undefined)
% of control [8]: 6.1%
